The text below walks through data of PMC6735358, “Synthesis and bioevaluation of novel steroidal isatin conjugates derived from epiandrosterone/androsterone” (Journal of Enzyme Inhibition and Medicinal Chemistry, 2019).

Data set [1] has as its system HepG2 (Human hepatocellular liver carcinoma cell line). Put plainly: MTT in vitro cytotoxicity, HepG2. Particulars: HepG2, 72 h, read-out: In vitro cytotoxicity IC50.
Protocol: (§2) After removal of the growth medium, six serial dilutions of each tested compound in 200 µL test medium were added. Plates were incubated at 37 °C in a humidified atmosphere containing 5% CO2. After 72 h of exposure, the culture medium was removed and 30 µL of the MTT solution (5 mg/mL in PBS) was added to each well. The plate was further incubated for 4 h to allow MTT formazan formation. To dissolve the resulting MTT formazan, 50 µL of DMSO was added to each well, followed by thorough mixing with a microplate shaker. Absorbance at 570 nm was measured on a microplate reader (Thermo Scientific, MK3). […] Assays were performed in triplicate on three independent experiments.
Data set [2] deals with A875 (Human melanoma cell line). Nature of the data set: MTT in vitro cytotoxicity, A875. Particulars: A875, 72 h, read-out: In vitro cytotoxicity IC50.
Protocol: as §2
The nature of the next data set: in vitro. Particulars: human. On the procedure:
(§1) Assays were performed in triplicate on three independent experiments.

Data set [3] deals with SGC-7901, A875 and HepG2 cell lines. Put plainly: MTT in vitro cytotoxicity, tested cancer cell lines together. The data set is classed as cell-based, human. Particulars: for IC50: Homo sapiens, span over SGC-7901, A875, HepG2, read-out: range of IC50 value over the tested cancer cell lines; for dose-response of cell growth inhibition: SGC-7901, A875 and HepG2, Figure 4. How it is done:
as §1

Data set [4] has as its system SGC-7901 (Human gastric cancer cell line). Put plainly: MTT in vitro cytotoxicity, SGC-7901. As to conditions: SGC-7901, 72 h, read-out: In vitro cytotoxicity IC50.
Protocol: as §2

As to `C[C@]12CC[C@@H](O)C[C@@H]1CC[C@@H]1[C@@H]2CC[C@]2(C)C(=NN=C3C(=O)Nc4ccc([N+](=O)[O-])cc43)CC[C@@H]12` [6g, 3-(((3R,5S,8R,9S,10S,13S,14S)-3-Hydroxy-10,13-dimethyldodecahydro-1H-cyclopenta[a]phenanthren-17(2H,10H,14H)-ylidene)hydrazono)-5-nitroindolin-2-one], the IC50 (as a rule, the midpoint of a concentration-inhibition curve) in data set [1] is 4.31 ± 0.92 µM; in data set [2], 3.85 ± 1.44 µM; in the data set “in vitro”, 11.2 ± 3.05 µM; in data set [3], 3.85 to 6.4 µM; in data set [4], 6.4 ± 1.74 µM. The “dose-response of cell growth inhibition” value in data set [3] is “dose-dependent manner”.

Turning to `C[C@]12CC[C@@H](O)C[C@@H]1CC[C@@H]1[C@@H]2CC[C@]2(C)C(=NN=C3C(=O)Nc4ccc(Br)cc43)CC[C@@H]12` [6d, 5-Bromo-3-(((3R,5S,8R,9S,10S,13S,14S)-3-hydroxy-10,13-dimethyldodecahydro-1H-cyclopenta[a]phenanthren-17(2H,10H,14H)-ylidene)hydrazono)indolin-2-one], the half-inhibitory concentration (IC50) in data set [1] turned out to be 6.1 ± 2.09 µM; in data set [2], 8.08 ± 0.51 µM; in the data set “in vitro”, 4.4 ± 0.68 µM; in data set [4], 7.14 ± 1.41 µM.

With `C[C@]12CC[C@H](O)CC1CC[C@@H]1[C@@H]2CC[C@]2(C)C(=NN=C3C(=O)Nc4cc(F)ccc43)CC[C@@H]12` (stereo partly drawn) [3h, 6-Fluoro-3-(((3S,8R,9S,10S,13S,14S)-3-hydroxy-10,13-dimethyldodecahydro-1H-cyclopenta[a]phenanthren-17(2H,10H,14H)-ylidene)hydrazono)indolin-2-one], the IC50 in data set [1] amounted to 4.85 ± 0.84 µM; in data set [2], 6.85 ± 1.99 µM; in “in vitro”, 7.87 ± 2.04 µM; in data set [4], 7.22 ± 1.17 µM.

Turning to `C[C@]12CC[C@H](O)CC1CC[C@@H]1[C@@H]2CC[C@]2(C)C(=NN=C3C(=O)Nc4ccc(Br)cc43)CC[C@@H]12` (stereo partly drawn) [3d, 5-Bromo-3-(((3S,8R,9S,10S,13S,14S)-3-hydroxy-10,13-dimethyldodecahydro-1H-cyclopenta[a]phenanthren-17(2H,10H,14H)-ylidene)hydrazono)indolin-2-one], the IC50 in data set [1] came to 8.29 ± 2.41 µM; in data set [2] it was 11.6 ± 2.84 µM; in the data set “in vitro” it was 14.1 ± 3.79 µM; in data set [4], 8.43 ± 2.23 µM.

On to `C[C@]12CC[C@@H](O)C[C@@H]1CC[C@@H]1[C@@H]2CC[C@]2(C)C(=NN=C3C(=O)Nc4ccc(I)cc43)CC[C@@H]12` [6e, 3-(((3R,5S,8R,9S,10S,13S,14S)-3-Hydroxy-10,13-dimethyldodecahydro-1H-cyclopenta[a]phenanthren-17(2H,10H,14H)-ylidene)hydrazono)-5-iodoindolin-2-one], for which the IC50 in data set [1] is 8.99 ± 3.13 µM; in data set [2] it was 19.7 ± 1.89 µM; in “in vitro”, 18.5 ± 1 µM; in data set [3], 8 to 20 µM; in data set [4], 17.1 ± 3.68 µM.

As to `C[C@]12CC[C@@H](O)C[C@@H]1CC[C@@H]1[C@@H]2CC[C@]2(C)C(=NN=C3C(=O)Nc4ccc(Cl)cc43)CC[C@@H]12` [6c, 5-Chloro-3-(((3R,5S,8R,9S,10S,13S,14S)-3-hydroxy-10,13-dimethyldodecahydro-1H-cyclopenta[a]phenanthren-17(2H,10H,14H)-ylidene)hydrazono)indolin-2-one], the IC50 turned out to be 4.84 ± 1.05 µM in data set [1], 8.78 ± 0.64 µM in data set [2], 6.36 ± 1.37 µM in the data set “in vitro” and 6.83 ± 2.01 µM in data set [4]. Further, the “dose-response of cell growth inhibition” value in data set [3] is on record as “dose-dependent manner”.

For `C[C@]12CC[C@H](O)CC1CC[C@@H]1[C@@H]2CC[C@]2(C)C(=NN=C3C(=O)Nc4ccc(Cl)cc43)CC[C@@H]12` (stereo partly drawn) [3c, 5-Chloro-3-(((3S,8R,9S,10S,13S,14S)-3-hydroxy-10,13-dimethyldodecahydro-1H-cyclopenta[a]phenanthren-17(2H,10H,14H)-ylidene)hydrazono)indolin-2-one], the IC50 in data set [1] turned out to be 2.39 ± 0.36 µM; in data set [2] it was 7.92 ± 1.95 µM; in “in vitro”, 5.01 ± 1.37 µM; in data set [4], 4.92 ± 1.13 µM. The “dose-response of cell growth inhibition” value in data set [3] is “dose-dependent manner”.

`C[C@]12CC[C@@H](O)C[C@@H]1CC[C@@H]1[C@@H]2CC[C@]2(C)C(=O)CC[C@@H]12` [Androsterone]: the IC50 (in data set [1]; in data set [2]; in the data set “in vitro”; in data set [4]) was more than 100 µM in each case.

In the case of `C[C@]12CC[C@H](O)CC1CC[C@@H]1[C@@H]2CC[C@]2(C)C(=NN=C3C(=O)Nc4ccccc43)CC[C@@H]12` (stereo partly drawn) [3a, 3-(((3S,8R,9S,10S,13S,14S)-3-Hydroxy-10,13-dimethyldodecahydro-1H-cyclopenta[a]phenanthren-17(2H,10H,14H)-ylidene)hydrazono)indolin-2-one], the IC50 was 6.72 ± 1.59 µM in data set [1], 9.51 ± 1.34 µM in data set [2], 5.65 ± 1.59 µM in “in vitro” and 7.69 ± 2.54 µM in data set [4].

Regarding `C[C@]12CC[C@@H](O)C[C@@H]1CC[C@@H]1[C@@H]2CC[C@]2(C)C(=NN=C3C(=O)Nc4ccc(F)cc43)CC[C@@H]12` [6b, 5-Fluoro-3-(((3R,5S,8R,9S,10S,13S,14S)-3-hydroxy-10,13-dimethyldodecahydro-1H-cyclopenta[a]phenanthren-17(2H,10H,14H)-ylidene)hydrazono)indolin-2-one], the 50% inhibitory concentration (IC50) in data set [1] worked out at 32.3 ± 4.21 µM; in data set [2], 42.2 ± 8.19 µM; in “in vitro”, 7.09 ± 1.57 µM; in data set [4] it was 9.51 ± 0.49 µM.

Take `C[C@]12CC[C@H](O)CC1CC[C@@H]1[C@@H]2CC[C@]2(C)C(=NN=C3C(=O)Nc4ccc(F)cc43)CC[C@@H]12` (stereo partly drawn) [3b, 5-Fluoro-3-(((3S,8R,9S,10S,13S,14S)-3-hydroxy-10,13-dimethyldodecahydro-1H-cyclopenta[a]phenanthren-17(2H,10H,14H)-ylidene)hydrazono)indolin-2-one]: the IC50 in data set [1] amounted to 6.12 ± 1.79 µM; in data set [2], 8.58 ± 1.64 µM; in the data set “in vitro”, 5.49 ± 1.33 µM; in data set [4], 6.67 ± 1.77 µM. In addition, the “dose-response of cell growth inhibition” value in data set [3] is “dose-dependent manner”.

Regarding `O=c1[nH]cc(F)c(=O)[nH]1` [5-FU, 5-Fluorouracil, reference compound], the IC50 amounted to 63.2 ± 12.6 µM in data set [1], 65.3 ± 7.3 µM in data set [2], 86 ± 9.61 µM in the data set “in vitro” (HL-7702 normal liver cells) and 62 ± 8.38 µM in data set [4].

With `C[C@]12CC[C@H](O)C[C@@H]1CC[C@@H]1[C@@H]2CC[C@]2(C)C(=O)CC[C@@H]12` [Epiandrosterone], the concentration for half-maximal inhibition (IC50) in data set [1] came out at 36.7 ± 10.6 µM; in data set [2], 63.6 ± 13.2 µM; in “in vitro”, 91.2 ± 12.3 µM; in data set [4] it was 69.8 ± 8.47 µM.

On to `C[C@]12CC[C@H](O)CC1CC[C@@H]1[C@@H]2CC[C@]2(C)C(=NN=C3C(=O)Nc4ccc(I)cc43)CC[C@@H]12` (stereo partly drawn) [3e, 3-(((3S,8R,9S,10S,13S,14S)-3-Hydroxy-10,13-dimethyldodecahydro-1H-cyclopenta[a]phenanthren-17(2H,10H,14H)-ylidene)hydrazono)-5-iodoindolin-2-one], for which the IC50 in data set [1] was found to be 18.6 ± 4.79 µM; in data set [2], 23.8 ± 4.39 µM; in “in vitro”, 14 ± 2.83 µM; in data set [4] it was 21.7 ± 3.86 µM.

Take `C[C@]12CC[C@@H](O)C[C@@H]1CC[C@@H]1[C@@H]2CC[C@]2(C)C(=NN=C3C(=O)Nc4cc(F)ccc43)CC[C@@H]12` [6h, 6-Fluoro-3-(((3R,5S,8R,9S,10S,13S,14S)-3-hydroxy-10,13-dimethyldodecahydro-1H-cyclopenta[a]phenanthren-17(2H,10H,14H)-ylidene)hydrazono)indolin-2-one]: the IC50 is 5.41 ± 1.44 µM in data set [1], 7.71 ± 2.13 µM in data set [2], 12.8 ± 2.79 µM in the data set “in vitro” and 9.2 ± 1.68 µM in data set [4].

For `C[C@]12CC[C@@H](O)C[C@@H]1CC[C@@H]1[C@@H]2CC[C@]2(C)C(=NN=C3C(=O)Nc4ccccc43)CC[C@@H]12` [6a, 3-(((3R,5S,8R,9S,10S,13S,14S)-3-Hydroxy-10,13-dimethyldodecahydro-1H-cyclopenta[a]phenanthren-17(2H,10H,14H)-ylidene)hydrazono)indolin-2-one], the IC50 is 20.4 ± 6.69 µM in data set [1], 21.7 ± 4.82 µM in data set [2], 8.29 ± 2.24 µM in “in vitro” and 13.8 ± 2.65 µM in data set [4].

Regarding `C[C@]12CC[C@H](O)CC1CC[C@@H]1[C@@H]2CC[C@]2(C)C(=NN=C3C(=O)Nc4ccc([N+](=O)[O-])cc43)CC[C@@H]12` (stereo partly drawn) [3g, 3-(((3S,8R,9S,10S,13S,14S)-3-Hydroxy-10,13-dimethyldodecahydro-1H-cyclopenta[a]phenanthren-17(2H,10H,14H)-ylidene)hydrazono)-5-nitroindolin-2-one], the IC50 turned out to be 19.4 ± 3.37 µM in data set [1], 26.2 ± 4.59 µM in data set [2], 33.4 ± 6.15 µM in the data set “in vitro” and 11.9 ± 2.45 µM in data set [4].

Consider `Cc1ccc2c(c1)C(=NN=C1CC[C@H]3[C@@H]4CCC5C[C@@H](O)CC[C@]5(C)[C@H]4CC[C@]13C)C(=O)N2` (stereo partly drawn) [3f, 3-(((3S,8R,9S,10S,13S,14S)-3-Hydroxy-10,13-dimethyldodecahydro-1H-cyclopenta[a]phenanthren-17(2H,10H,14H)-ylidene)hydrazono)-5-methylindolin-2-one], for which the IC50 in data set [1] was 6.91 ± 0.58 µM; in data set [2] it was 6.01 ± 1.95 µM; in “in vitro”, 6.08 ± 0.54 µM; in data set [4], 7.06 ± 1.27 µM.

Take `Cc1ccc2c(c1)C(=NN=C1CC[C@H]3[C@@H]4CC[C@H]5C[C@H](O)CC[C@]5(C)[C@H]4CC[C@]13C)C(=O)N2` [6f, 3-(((3R,5S,8R,9S,10S,13S,14S)-3-Hydroxy-10,13-dimethyldodecahydro-1H-cyclopenta[a]phenanthren-17(2H,10H,14H)-ylidene)hydrazono)-5-methylindolin-2-one]: the IC50 is 4.85 ± 1.07 µM in data set [1], 8.25 ± 1.97 µM in data set [2], 12.5 ± 4.36 µM in “in vitro” and 9.12 ± 1.61 µM in data set [4].
